Values joined by “and” are separate entries in the source; they are usually repeats but may differ in a detail not shown here. Equal entries are not always repeated.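 Results reflect a 48-hour exposure of cells in 96-well plates to compound at five concentrations. GI50: concentration for 50% inhibition of growth. TGI is the concentration that stops growth completely.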
Key:
Assay in all cases: DTP human tumour cell line panel, 48 h
786-0 renal = test system: 786-0 renal
A498 renal = test system: A498 renal
COLO 205 colon = test system: COLO 205 colon
KM12 colon = test system: KM12 colon
MDA-MB-231 breast = test system: MDA-MB-231 breast
MDA-MB-435 = test system: MDA-MB-435
T-47D breast = test system: T-47D breast
LOX IMVI melanoma = test system: LOX IMVI melanoma
NCI-H460 lung = test system: NCI-H460 lung
NCI-H522 lung = test system: NCI-H522 lung

SMILES | GI50 (786-0 renal) [µM] | TGI (786-0 renal) | GI50 (A498 renal) [µM] | TGI (A498 renal) [µM] | GI50 (COLO 205 colon) [µM] | TGI (COLO 205 colon) | GI50 (KM12 colon) [µM] | TGI (KM12 colon) | GI50 (MDA-MB-231 breast) [µM] | TGI (MDA-MB-231 breast) | GI50 (MDA-MB-435) [µM] | TGI (MDA-MB-435) | GI50 (T-47D breast) [µM] | TGI (T-47D breast) | GI50 (LOX IMVI melanoma) [µM] | TGI (LOX IMVI melanoma) | GI50 (NCI-H460 lung) [µM] | TGI (NCI-H460 lung) | GI50 (NCI-H522 lung) [µM] | TGI (NCI-H522 lung) [µM]
COc1cc(/C=C/c2cc(/C=C/c3ccc(O)c(OC)c3)n(-c3ccccc3)n2)ccc1O | 0.582 | 1.83 µM | 0.575 | 1.82 | 1.77 | 3.31 µM | 0.315 | 1.29 µM | 0.557 | 6.94 µM | 0.0415 | 0.191 µM | 0.645 | 2.6 µM |  |  |  |  |  | 
COc1cc(OC)cc(-c2ccc(-c3ccc(C(=N)N)o3)o2)c1 | 4.15 | 15.6 µM | 2.89 | 15.3 | 1.84 | 3.79 µM | 2.45 | 6.56 µM | 2.35 | 4.78 µM | 1.52 | 3.12 µM | 2.08 | 5.04 µM | 1.79 | 3.29 µM | 2.32 | 5.17 µM | 2.3 | 7.4
O=C(NCCOCCOCCNc1cccc2c1C(=O)N(C1CCCNC1=O)C2=O)c1cc2c(o1)C(=O)c1ccccc1C2=O (stereo not given) | 3.26 | 10.9 µM | 1.77 | 3.21 | 2.1 | 4.12 µM | 2.91 | 10 µM | 2.72 | 9.96 µM | 1.62 | 3.05 µM | 2.53 | 8.81 µM | 1.17 | 3 µM | 1.85 | 3.59 µM | 2 | 4.77
O=[N+]([O-])/C=C\c1ccc(Cl)c(Cl)c1 | 1.89 | 3.56 µM | 0.667 | 3.81 | 3.48 | 12.8 µM | 2.08 | 4.56 µM | 5.73 | 23.2 µM | 1.27 | 2.86 µM | 2.82 | 13.9 µM | 0.412 | 1.73 µM | 3.64 | 25.1 µM |  | 
CSc1cc(N=Nc2nc3ccccc3s2)c2ccccc2c1O | 9.82 | 18.4 µM | 23.3 | 45.5 | 14.2 | > 50 µM | 5.35 | 28.7 µM | 6.97 | 14.6 µM | 11.1 | 23.9 µM | 3.64 | > 50 µM | 5.97 | 12.7 µM | 7.83 | 17.6 µM | 1.82 | 13.1
COc1cnc2cc(C(=O)O)c3c([N+](=O)[O-])cccc3c2c1 |  | > 100 µM |  |  |  | > 100 µM |  | > 100 µM |  | > 100 µM |  | > 100 µM |  | > 100 µM |  | > 100 µM |  | > 100 µM |  | > 100
O=C1c2c(c3c4ccccc4n(CCCCCCBr)c3c3[nH]c4ccccc4c23)C(=O)N1O | 2.09 | 5.81 µM | 2.89 | 9.14 | 1.97 | 4.7 µM | 2.59 | 10.4 µM | 2.9 | 9.52 µM | 1.98 | 4.97 µM | 1.74 | 7.44 µM |  |  | 3.35 | 11.8 µM |  | 
CC1OC(O[C@H]2C[C@@H](O)[C@]3(CO)[C@H]4[C@H](O)C[C@]5(C)[C@@H](C6=CC(=O)OC6)CC[C@]5(O)[C@@H]4CC[C@]3(O)C2)C(O)C(O)C1O (stereo not given in full) | 19.9 | 36.3 µM | 20.4 | 39 | 18.5 | 33.7 µM | 17.8 | 32.3 µM | 21 | 40.5 µM | 19.5 | 38.6 µM | 24.9 | 51.5 µM | 19 | 34 µM | 19.1 | 35.4 µM | 17.8 | 32.5
CCOC(=O)/C=C(/C(=O)OCC)n1cc(Cl)c(=O)n(CC(=O)OCC)c1=O | 2.78 | 2.48 µM and 7.5 µM |  | 34.6 | 1.32 | 2.81 µM and 2.59 µM | 21.2 | > 25 µM and 43.8 µM | 20.6 | 10.7 µM and 36.8 µM |  | 9.95 µM and 36.6 µM | 1.31 | 18.9 µM and 4.28 µM | 15.2 | 8.17 µM and 34.5 µM | 35.1 | 25 µM and > 100 µM |  | 2.88
N#CSCC1CC(O)(c2ccccc2)C(c2ccccc2)C(c2ccc(Cl)cc2)O1 (stereo not given) | 1.74 | 3.28 µM | 2.16 | 5.63 | 1.46 | 2.84 µM |  |  | 1.8 | 4.79 µM | 1.4 | 2.88 µM | 1.07 | 3.53 µM | 1.58 | 2.97 µM |  |  |  | 
C=C(CN1CCc2ccccc2C1)c1ccc(C(=O)Nc2cnccn2)cc1 | 25.4 | > 100 µM | 33.4 | > 100 | 17.5 | 40.1 µM | 12.5 | 56.5 µM | 27.3 | > 100 µM |  |  | > 100 | > 100 µM | 9.18 | > 100 µM | 36.3 | > 100 µM | 18.2 | 42.5
CCNCCNc1cc(-c2ccc(C(=O)OC)cc2)c(C#N)c2nc3ccccc3n12 | 1.56 | 3.46 µM | 1.99 | 5.13 | 0.623 | 2.24 µM | 2.59 | > 100 µM |  |  | 1.71 | 3.47 µM | 2.16 | 5.31 µM | 1.53 | 2.99 µM | 1.42 | 3.31 µM | 1.72 | 4.52
CSc1ccc(C2=NN(C(C)=O)C(c3cc(C)cs3)C2)cc1 (stereo not given) | 40 | > 100 µM |  |  | 17.3 | 35.8 µM | 24 | > 100 µM | 27.5 | > 100 µM | 23.4 | > 100 µM | 13 | > 100 µM | 24.2 | > 100 µM | 27.3 | > 100 µM | 17.9 | 74.9
Cc1ccc(CS/C(=C\c2ccc([N+](=O)[O-])cc2)C(=O)c2ccc(F)cc2)cc1 | 2.11 | 4.99 µM | 15.6 | 36 | 3.72 | 16.6 µM | 2.16 | 5.13 µM | 2.42 | 6.08 µM | 2.41 | 6.49 µM | 4.53 | 22.4 µM | 1.64 | 3 µM | 6.44 | 22.5 µM |  | 
